pEC50, pIC50: −log10 of the molar value.
Assays:
[1] = Tmax in Sprague-Dawley rat plasma at 10 mg/kg, po after 24 hrs; type: ADME, organism-based
[2] = Half life in Sprague-Dawley rat plasma at 10 mg/kg, po after 24 hrs; type: ADME, organism-based
[3] = system: Rattus norvegicus; experiment: AUC (0 to infinity) in Sprague-Dawley rat plasma at 1 mg/kg, iv after 8 hrs; type: ADME, organism-based; parameters: dose 1 mg/kg, route intravenous, time infinity; details: in vivo
[4] = target: T1, Epidermal growth factor receptor (Homo sapiens, UniProt P00533, L858R/T790M); experiment: Inhibition of EGFR T790M/L858R mutant (unknown origin) autophosphorylation at Y1068 expressed in mouse BAF3 cells after 4 hrs by Western blot analysis; type: cell-based
T1 sequence (P00533 25-1210 T790M/L858R limits assumed): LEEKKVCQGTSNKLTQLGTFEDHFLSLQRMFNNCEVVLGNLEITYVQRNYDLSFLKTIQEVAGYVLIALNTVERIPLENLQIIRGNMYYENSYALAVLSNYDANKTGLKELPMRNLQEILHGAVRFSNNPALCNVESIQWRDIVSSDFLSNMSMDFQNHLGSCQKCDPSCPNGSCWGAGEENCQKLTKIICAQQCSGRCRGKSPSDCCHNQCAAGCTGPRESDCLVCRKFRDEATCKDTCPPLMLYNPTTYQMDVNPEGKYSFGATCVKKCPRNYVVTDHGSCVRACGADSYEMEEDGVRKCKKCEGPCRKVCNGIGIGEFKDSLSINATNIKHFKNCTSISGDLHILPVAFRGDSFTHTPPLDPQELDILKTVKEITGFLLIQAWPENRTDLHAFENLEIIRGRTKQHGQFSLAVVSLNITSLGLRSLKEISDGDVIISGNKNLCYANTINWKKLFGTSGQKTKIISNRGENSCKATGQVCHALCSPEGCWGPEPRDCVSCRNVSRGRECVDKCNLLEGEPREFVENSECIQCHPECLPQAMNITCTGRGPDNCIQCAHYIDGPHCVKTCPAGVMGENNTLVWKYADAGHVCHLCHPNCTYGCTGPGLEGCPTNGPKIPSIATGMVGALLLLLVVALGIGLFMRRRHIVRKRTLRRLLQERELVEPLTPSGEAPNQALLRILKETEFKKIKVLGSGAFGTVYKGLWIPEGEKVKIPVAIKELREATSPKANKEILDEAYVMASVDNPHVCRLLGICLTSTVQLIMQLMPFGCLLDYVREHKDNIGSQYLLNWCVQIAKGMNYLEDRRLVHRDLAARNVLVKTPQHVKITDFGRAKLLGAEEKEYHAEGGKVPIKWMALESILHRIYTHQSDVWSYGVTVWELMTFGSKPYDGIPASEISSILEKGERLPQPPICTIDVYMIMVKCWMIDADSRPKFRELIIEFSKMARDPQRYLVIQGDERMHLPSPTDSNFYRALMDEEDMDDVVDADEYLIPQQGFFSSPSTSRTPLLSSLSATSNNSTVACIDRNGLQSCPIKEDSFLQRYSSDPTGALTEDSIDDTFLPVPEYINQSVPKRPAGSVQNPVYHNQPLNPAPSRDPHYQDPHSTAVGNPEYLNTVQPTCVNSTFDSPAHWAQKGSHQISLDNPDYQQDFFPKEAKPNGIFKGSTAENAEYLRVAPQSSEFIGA

[5] = target: Receptor tyrosine-protein kinase erbB-2 (Homo sapiens, UniProt P04626); experiment: Inhibition of recombinant human […] ERBB2 cytoplasmic domain (676 to 1255 residues) expressed in baculovirus by Z'-LYTE assay
[6] = target: T2, Epidermal growth factor receptor (Homo sapiens, UniProt P00533); experiment: Inhibition of recombinant human GST-tagged EGFR cytoplasmic domain expressed in baculovirus by Z'-LYTE assay
T2 sequence (P00533 whole entry, the tested form may be a part): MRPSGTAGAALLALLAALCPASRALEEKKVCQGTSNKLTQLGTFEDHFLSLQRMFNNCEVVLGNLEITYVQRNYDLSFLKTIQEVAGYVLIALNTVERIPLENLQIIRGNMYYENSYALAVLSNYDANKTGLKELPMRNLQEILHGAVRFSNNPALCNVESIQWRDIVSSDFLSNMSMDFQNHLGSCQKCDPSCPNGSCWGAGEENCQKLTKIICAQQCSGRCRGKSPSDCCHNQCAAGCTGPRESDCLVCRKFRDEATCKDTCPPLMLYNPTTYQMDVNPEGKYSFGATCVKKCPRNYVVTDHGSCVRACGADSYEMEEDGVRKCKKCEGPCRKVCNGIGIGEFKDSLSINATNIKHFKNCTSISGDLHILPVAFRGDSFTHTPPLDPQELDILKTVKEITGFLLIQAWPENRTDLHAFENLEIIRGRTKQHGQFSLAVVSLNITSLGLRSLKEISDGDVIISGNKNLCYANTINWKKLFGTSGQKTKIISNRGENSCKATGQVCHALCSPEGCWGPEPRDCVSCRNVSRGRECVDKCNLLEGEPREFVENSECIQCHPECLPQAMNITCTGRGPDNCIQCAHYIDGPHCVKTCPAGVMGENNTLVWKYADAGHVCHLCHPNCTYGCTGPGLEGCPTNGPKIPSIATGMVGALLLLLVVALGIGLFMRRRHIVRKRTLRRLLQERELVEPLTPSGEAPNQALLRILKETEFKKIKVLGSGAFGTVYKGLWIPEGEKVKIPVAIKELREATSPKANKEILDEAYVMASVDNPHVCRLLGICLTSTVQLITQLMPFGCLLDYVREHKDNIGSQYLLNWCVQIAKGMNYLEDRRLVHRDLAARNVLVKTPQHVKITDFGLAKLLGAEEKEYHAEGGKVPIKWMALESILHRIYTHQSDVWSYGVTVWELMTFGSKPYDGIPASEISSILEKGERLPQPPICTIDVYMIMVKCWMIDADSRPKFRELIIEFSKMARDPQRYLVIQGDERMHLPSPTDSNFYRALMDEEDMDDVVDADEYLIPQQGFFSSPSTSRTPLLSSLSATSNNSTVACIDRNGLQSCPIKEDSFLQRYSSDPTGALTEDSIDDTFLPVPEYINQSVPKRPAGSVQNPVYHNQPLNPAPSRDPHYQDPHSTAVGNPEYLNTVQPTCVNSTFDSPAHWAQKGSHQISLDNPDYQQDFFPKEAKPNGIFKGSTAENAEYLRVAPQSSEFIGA

[7] = target: T2, Epidermal growth factor receptor; experiment: Inhibition of wild-type EGFR in human NCI-H2122 cells assessed as reduction in ERK phosphorylation at Thr202/Tyr204 site at 0.01 to 3 uM by Western blot analysis; type: cell-based
[8] = target: T3, Tyrosine-protein kinase Blk (Homo sapiens, UniProt P51451); experiment: Inhibition of full-length recombinant human His-tagged BLK expressed in baculovirus by Z'-LYTE assay
[9] = target: T2, Epidermal growth factor receptor; experiment: Inhibition of wild-type EGFR in human H1355 cells assessed as growth inhibition after 72 hrs by CellTiter-Glo assay; type: cell-based
[10] = target: T4, Tyrosine-protein kinase BTK (Homo sapiens, UniProt Q06187); experiment: Inhibition of full-length recombinant human His-tagged BTK cytoplasmic domain expressed in baculovirus by Z'-LYTE assay
T4 sequence (Q06187 whole entry, the tested form may be a part): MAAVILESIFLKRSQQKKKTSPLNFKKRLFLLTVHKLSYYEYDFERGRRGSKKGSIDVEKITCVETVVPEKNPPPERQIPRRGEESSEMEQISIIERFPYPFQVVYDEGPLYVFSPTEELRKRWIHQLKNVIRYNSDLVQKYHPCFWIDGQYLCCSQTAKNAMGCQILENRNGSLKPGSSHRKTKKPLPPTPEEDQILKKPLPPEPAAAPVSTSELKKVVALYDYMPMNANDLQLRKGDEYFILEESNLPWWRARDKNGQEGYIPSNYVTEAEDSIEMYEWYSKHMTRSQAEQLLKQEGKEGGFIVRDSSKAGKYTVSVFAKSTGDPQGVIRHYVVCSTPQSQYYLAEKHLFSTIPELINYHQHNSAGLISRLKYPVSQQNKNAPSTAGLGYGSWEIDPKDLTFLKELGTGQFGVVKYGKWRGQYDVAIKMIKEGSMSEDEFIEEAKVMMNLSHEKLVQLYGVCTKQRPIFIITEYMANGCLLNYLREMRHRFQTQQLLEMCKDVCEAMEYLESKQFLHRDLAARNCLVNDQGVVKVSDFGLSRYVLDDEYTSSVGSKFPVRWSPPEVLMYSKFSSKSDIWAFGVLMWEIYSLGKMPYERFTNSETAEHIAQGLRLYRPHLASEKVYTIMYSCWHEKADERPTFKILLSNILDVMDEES

[11] = target: Cytoplasmic tyrosine-protein kinase BMX (Homo sapiens, UniProt P51813); experiment: Inhibition of full-length recombinant human His-tagged BMX expressed in baculovirus by Z'-LYTE assay
[12] = system: Rattus norvegicus; experiment: AUC (0 to t) in Sprague-Dawley rat plasma at 10 mg/kg, po after 24 hrs; type: ADME, organism-based; parameters: dose 10 mg/kg, time < 24 hr, route oral; details: in vivo
[13] = MRT (0 to infinity) in Sprague-Dawley rat plasma at 1 mg/kg, iv after 8 hrs; type: ADME, organism-based
[14] = Tmax in Sprague-Dawley rat plasma at 1 mg/kg, iv after 8 hrs; type: ADME, organism-based
[15] = target: T3, Tyrosine-protein kinase Blk; experiment: Binding affinity to wild-type human BLK expressed in bacterial system assessed as control score at 1 uM by KINOMEScan assay
[16] = target: Epidermal growth factor receptor (Homo sapiens, UniProt P00533, EX19DEL); experiment: Inhibition of EGFR exon 19 deletion mutant in human PC9 cells assessed as reduction in ERK phosphorylation at Thr202/Tyr204 measured after 4 hrs by Western blot analysis; type: cell-based
[17] = system: Rattus norvegicus; experiment: AUC (0 to t) in Sprague-Dawley rat plasma at 1 mg/kg, iv after 8 hrs; type: ADME, organism-based; parameters: time < 8 hr, dose 1 mg/kg, route intravenous; details: in vivo
[18] = target: T4, Tyrosine-protein kinase BTK; experiment: Binding affinity to full-length wild-type human BTK expressed in mammalian system assessed as control score at 1 uM by KINOMEScan assay
[19] = Oral bioavailability in Sprague-Dawley rat at 10 mg/kg after 24 hrs; type: ADME, organism-based; details: in vivo
[20] = target: T2, Epidermal growth factor receptor; experiment: Inhibition of wild-type EGFR in human NCI-H2122 cells assessed as reduction in P70S6K phosphorylation at Thr389 site at 0.01 to 3 uM by Western blot analysis; type: cell-based
[21] = target: T2, Epidermal growth factor receptor; experiment: Inhibition of wild-type EGFR in human A549 cells assessed as reduction in eIF4E phosphorylation at Ser209 site at 0.01 to 3 uM by Western blot analysis; type: cell-based; details: a549, 3 µM
[22] = Apparent plasma clearance in Sprague-Dawley rat at 1 mg/kg, iv after 8 hrs; type: ADME, organism-based
[23] = target: Dual specificity mitogen-activated protein kinase kinase 1 (Homo sapiens, UniProt Q02750); experiment: Binding affinity to full-length human MEK1 expressed in mammalian system assessed as control score at 1 uM by KINOMEScan assay
Dual specificity mitogen-activated protein kinase kinase 1, sequence (Q02750 whole entry): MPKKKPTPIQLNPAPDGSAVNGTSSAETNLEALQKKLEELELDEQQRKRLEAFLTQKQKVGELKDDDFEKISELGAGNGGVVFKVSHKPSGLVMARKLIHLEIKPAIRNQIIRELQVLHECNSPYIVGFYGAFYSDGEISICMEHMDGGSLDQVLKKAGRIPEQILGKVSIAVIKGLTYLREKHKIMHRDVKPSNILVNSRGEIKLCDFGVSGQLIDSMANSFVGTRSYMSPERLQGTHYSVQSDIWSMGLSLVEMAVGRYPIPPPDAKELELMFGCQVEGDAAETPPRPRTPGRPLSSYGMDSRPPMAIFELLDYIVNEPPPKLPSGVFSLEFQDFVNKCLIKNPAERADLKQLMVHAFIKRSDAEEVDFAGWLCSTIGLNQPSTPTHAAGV

[24] = Half life in Sprague-Dawley rat plasma at 1 mg/kg, iv after 8 hrs; type: ADME, organism-based
[25] = target: Serine/threonine-protein kinase 10 (Homo sapiens) (UniProt O94804); experiment: Binding affinity to wild-type human LOK expressed in bacterial system assessed as control score at 1 uM by KINOMEScan assay
[26] = target: T2, Epidermal growth factor receptor; experiment: Inhibition of wild-type EGFR in human A549 cells assessed as reduction in STAT3 phosphorylation at Y705 site at 0.01 to 3 uM by Western blot analysis; type: cell-based; details: a549, 3 µM
[27] = target: Dual specificity mitogen-activated protein kinase kinase 5 (Homo sapiens) (UniProt Q13163); experiment: Binding affinity to wild-type human MEK5 expressed in mammalian system assessed as control score at 1 uM by KINOMEScan assay
[28] = target: Receptor tyrosine-protein kinase erbB-4 (Homo sapiens, UniProt Q15303); experiment: Inhibition of recombinant human N-terminal GST-tagged ERBB4 cytoplasmic domain (708 to 993 residues) expressed in baculovirus by Z'-LYTE assay
Receptor tyrosine-protein kinase erbB-4, sequence (Q15303 whole entry, the tested form may be a part): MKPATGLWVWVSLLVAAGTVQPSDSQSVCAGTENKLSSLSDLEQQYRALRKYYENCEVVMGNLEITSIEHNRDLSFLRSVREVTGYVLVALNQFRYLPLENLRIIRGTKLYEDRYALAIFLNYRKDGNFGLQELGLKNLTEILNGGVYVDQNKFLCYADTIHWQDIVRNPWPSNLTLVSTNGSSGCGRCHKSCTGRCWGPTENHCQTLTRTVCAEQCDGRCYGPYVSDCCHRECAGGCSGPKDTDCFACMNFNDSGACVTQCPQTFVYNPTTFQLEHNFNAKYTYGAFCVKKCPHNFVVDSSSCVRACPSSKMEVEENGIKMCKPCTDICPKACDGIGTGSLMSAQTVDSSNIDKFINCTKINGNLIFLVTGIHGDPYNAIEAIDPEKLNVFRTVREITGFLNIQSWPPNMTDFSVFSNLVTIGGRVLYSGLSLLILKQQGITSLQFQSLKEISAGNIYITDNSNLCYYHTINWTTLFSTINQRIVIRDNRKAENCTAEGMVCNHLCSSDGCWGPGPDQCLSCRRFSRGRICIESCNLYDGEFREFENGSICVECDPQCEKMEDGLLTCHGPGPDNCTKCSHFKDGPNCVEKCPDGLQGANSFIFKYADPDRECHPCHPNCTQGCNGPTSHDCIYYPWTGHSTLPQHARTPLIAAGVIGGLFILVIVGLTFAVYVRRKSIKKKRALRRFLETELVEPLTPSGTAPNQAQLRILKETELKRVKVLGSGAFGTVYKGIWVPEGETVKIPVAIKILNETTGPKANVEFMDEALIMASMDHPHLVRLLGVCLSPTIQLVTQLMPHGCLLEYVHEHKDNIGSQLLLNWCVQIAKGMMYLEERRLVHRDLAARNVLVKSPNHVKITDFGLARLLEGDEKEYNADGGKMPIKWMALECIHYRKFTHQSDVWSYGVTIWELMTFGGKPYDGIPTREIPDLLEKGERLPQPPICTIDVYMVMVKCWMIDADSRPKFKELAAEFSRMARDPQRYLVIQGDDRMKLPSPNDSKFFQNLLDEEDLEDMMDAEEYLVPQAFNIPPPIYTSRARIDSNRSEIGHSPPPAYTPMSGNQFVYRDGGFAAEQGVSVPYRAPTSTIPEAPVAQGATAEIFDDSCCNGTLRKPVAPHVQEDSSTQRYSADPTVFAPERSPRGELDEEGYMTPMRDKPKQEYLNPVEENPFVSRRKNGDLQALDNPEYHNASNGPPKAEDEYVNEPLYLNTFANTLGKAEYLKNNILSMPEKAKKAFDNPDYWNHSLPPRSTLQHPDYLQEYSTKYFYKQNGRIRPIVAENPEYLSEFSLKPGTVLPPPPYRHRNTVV

[29] = Apparent plasma clearance in Sprague-Dawley rat after 24 hrs at 10 mg/kg, po; type: ADME, organism-based
[30] = target: T2, Epidermal growth factor receptor; experiment: Inhibition of wild-type EGFR in human A549 cells assessed as reduction in Akt phosphorylation at 473 site at 0.01 to 3 uM by Western blot analysis; type: cell-based; details: a549, 3 µM
[31] = target: Insulin-like growth factor 1 receptor (Homo sapiens) (UniProt P08069); experiment: Inhibition of Tel-fused IGF1R (unknown origin) expressed in mouse BAF3 cells assessed as growth inhibition after 72 hrs by CellTiter-Glo assay; type: cell-based
[32] = target: T2, Epidermal growth factor receptor; experiment: Inhibition of wild-type EGFR in human A549 cells assessed as reduction in Akt phosphorylation at 308 site at 0.01 to 3 uM by Western blot analysis; type: cell-based; details: a549, 3 µM
[33] = target: T2, Epidermal growth factor receptor; experiment: Inhibition of wild-type EGFR in human NCI-H2122 cells assessed as reduction in Akt phosphorylation at 473 site at 0.01 to 3 uM by Western blot analysis; type: cell-based
[34] = target: T2, Epidermal growth factor receptor; experiment: Inhibition of wild-type EGFR in human A549 cells assessed as growth inhibition after 72 hrs by CellTiter-Glo assay; type: cell-based; details: a549, 72 h
[35] = target: T1, Epidermal growth factor receptor; experiment: Inhibition of EGFR L858R/T790M mutant in human NCI-H1975 cells assessed as reduction in ERK phosphorylation at Thr202/Tyr204 measured after 4 hrs by Western blot analysis; type: cell-based
[36] = target: T2, Epidermal growth factor receptor; experiment: Inhibition of wild type EGFR autophosphorylation at Y1068 in human NCI-H2122 cells at 0.01 to 3 uM after 4 hrs by Western blot analysis; type: cell-based
[37] = system: Rattus norvegicus; experiment: AUC (0 to infinity) in Sprague-Dawley rat plasma at 10 mg/kg, po after 24 hrs; type: ADME, organism-based; parameters: dose 10 mg/kg, time infinity, route oral; details: in vivo
[38] = target: T2, Epidermal growth factor receptor; experiment: Inhibition of wild-type EGFR in human NCI-H2122 cells assessed as growth inhibition after 72 hrs by CellTiter-Glo assay; type: cell-based

Q: Which Tmax [1] does the source give for `C=CC(=O)N1CCC[C@@H](n2nc(-c3ccc(OCc4ccccn4)c(Cl)c3)c3c(N)ncnc32)C1` here?
A: 34.8 min

Q: And the half-life [2]?
A: 117 min

Q: And the AUC [3]?
A: 405 ng·h/mL

Q: And the pEC50 [4]?
A: 8.15

Q: And the pIC50 [5]?
A: 8.09

Q: What about the pIC50 [6] of the same compound?
A: 8.08

Q: And the “inhibition (INH)” value [7]?
A: Not Active

Q: And the pIC50 [8]?
A: 8.09

Q: What about the GI50 [9] of the same compound?
A: > 10 µM

Q: And the pIC50 [10]?
A: 7.61

Q: What about the pIC50 [11] of the same compound?
A: 6.95

Q: What about the AUCt [12] of the same compound?
A: 130 to 415 ng/mL/h

Q: What about the MRT inf [13] of the same compound?
A: 12.6 min

Q: What about the Tmax [14] of the same compound?
A: 1.02 min

Q: What about the Activity [15] of the same compound?
A: 0.7%

Q: And the pEC50 [16]?
A: > 8.00

Q: What about the AUCt [17] of the same compound?
A: 404 to 2340 ng/mL/h

Q: And the Activity [18]?
A: 0.05%

Q: What about the bioavailability [19] of the same compound?
A: 10.3%

Q: And the “inhibition (INH)” value [20]?
A: Not Active

Q: And the “inhibition (INH)” value [21]?
A: Not Active

Q: What about the clearance [22] of the same compound?
A: 41.3 mL/min/kg

Q: And the Activity [23]?
A: 0.4%

Q: What about the half-life [24] of the same compound?
A: 18 min

Q: What about the Activity [25] of the same compound?
A: 0.95%

Q: And the “inhibition (INH)” value [26]?
A: Not Active

Q: And the Activity [27]?
A: 0.1%

Q: What about the pIC50 [28] of the same compound?
A: 8.49

Q: And the CL/F [29]?
A: 406 mL/min/kg

Q: What about the “inhibition (INH)” value [30] of the same compound?
A: Not Active

Q: And the GI50 [31]?
A: > 10 µM

Q: And the “inhibition (INH)” value [32]?
A: Not Active

Q: What about the “inhibition (INH)” value [33] of the same compound?
A: Not Active

Q: And the GI50 [34]?
A: > 10 µM

Q: What about the pEC50 [35] of the same compound?
A: > 8.00

Q: And the “inhibition (INH)” value [36]?
A: Active

Q: And the AUC [37]?
A: 441 ng·h/mL

Q: What about the GI50 [38] of the same compound?
A: > 10 µM
